For assay [1], the system named is endothelial cells. The assay can be described thus: In vitro model of angiogenesis: tubule formation on Matrigel. Format: cell-based. As to the method: An experimental in vitro model was employed to observe the effect of β2-AR ligands (ie agonists and antagonists) on endothelial cell vessel formation. […] The endothelial cells plated on the top of the Matrigel were maintained in a 37° C. incubator with 5% CO2 Tubule formation was observed every 4 hours up to 21 hours using an inverted Nikon Diaphot microscope.

Assay [2] relates to aortic rings. The assay can be described thus: Rat aortic ring assay (capillary outgrowth). It is filed as cell-based. The conditions noted are these: after 90 hours; 10 nM ICI 118,551 or 1 μM salbutamol; vs untreated. As to the method: A rat aortic ring assay (as described in Nicosia and Ottinetti (1990) Lab Invest 63 (1), 115-122; and Diglio et al (1989) Lab Invest 60 (4), 523-531) was used to study the effect of β2-AR ligands on vessel formation. Rat aorta was obtained from animals that were euthanised under a Home Office Approved Schedule 1 method. The aorta was cut into small rings with sterile scissors and each piece was submerged under a 50 μl bead of Matrigel in the bottom of each in a 24-well dish. […] Vessel growth was observed using an inverted Nikon Diaphot microscope every 30 hours and images were captured as described in Pullar et al (2005) J Cell Sci 118 (Pt 9), 2023-2034; Pullar et al (2006) Mol Biol Cell and Pullar et al (2001) Cell Motil Cytoskeleton 50 (4), 207-217.

Assay [3] has as its system chick chorioallantoic membrane (CAM). The experiment in a line: Chick chorioallantoic membrane (CAM) assay. It is filed as in vivo. The conditions noted are these: day 8 chick embryos, 48 hours; 10 μM agonist, 10 μM forskolin or 10 nM ICI 118,551; control 15. As to the method: Fertilised chicken eggs were obtained within the first two days of embryonic development, and were cleaned and incubated at 37° C. for 24 hours. On day 3 of development, 1-2 ml of albumin was removed from the apex end of each egg with a sterile needle. A window of 1.5×1.5 cm was created in the shell with a Dremmel tool, and was sealed with clear adhesive tape. […] Images of the exposed vasculature were captured 48 hours later using a Nikon microscope/imaging system. Scale bar=1 mm. Bifurcation points were counted in four fields for the control/treatment groups.

The subject of assay [4] is dermal microvascular endothelial cells. The experiment in a line: Galvanotaxis in applied electric field, dermal microvascular endothelial cells. It is filed as cell-based, human. The conditions noted are these: electric field 100 mV/mm. The method, then: (§1) Endothelial cells were seeded at low density in medium within electrostatic chambers for 2-3 hours prior to exposure to an electric field (EF). A roof consisting of a No 1 cover slip was applied and sealed on top of the chamber, as previously described (in Pullar et al (2005) J Cell Sci 118 (Pt 9), 2023-2034; Pullar et al (2006) Mol Biol Cell and Pullar et al (2001) Cell Motil Cytoskeleton 50 (4), 207-217). A direct current EF of 100 mV/mm was applied through agar bridges connecting silver/silver chloride electrodes to the culture medium at either side of the chamber. The chamber was placed on an inverted microscope with temperature controlled at 37° C.
(§2) Time-lapse images were recorded every 10 minutes over 1 hour and analyzed with Improvision software as previously described (Pullar et al (2005) J Cell Sci 118 (Pt 9), 2023-2034; Pullar et al (2006) Mol Biol Cell and Pullar et al (2001) Cell Motil Cytoskeleton 50 (4), 207-217). […] Therefore, the average of directedness values of a population of cells gives an objective quantification of how, directionally, cells have moved within the electric field. […] Migration rate was analyzed with the following two parameters, ie trajectory speed (μm/min) is the total length of the migration trajectory of a cell divided by the given period of time (ie 60 minutes).

Assay [5] concerns MTLn3 cells. The assay can be described thus: Galvanotaxis in applied electric field, MTLn3 mammary adenocarcinoma cells. Format: cell-based.
Assay [6] has as its system dermal microvascular endothelial cells. The assay can be described thus: Scratch (wound healing) assay, dermal microvascular endothelial cells. The conditions noted are these: 10 nM ICI 118,551 or 1 μM salbutamol. Format: cell-based, human. The method, then: Endothelial cells were grown to confluence in medium on plastic tissue culture dishes (Fisher Scientific, Pittsburgh, Pa.) coated with 60 μg/ml collagen I (Vitrogen 100, Collagen Corp., Palo Alto, Calif.) in PBS for 1 hour at 37° C. […] Demarcated areas of each wound were photographed on an inverted Nikon Diaphot microscope at the time of wounding (time 0) up to wound healing as described in Pullar et al., (2003) J Biol Chem 278 (25), 22555-22562. Image J was used to measure each demarcated wound area at time 0 and 20 hours post wounding and the results were averaged to calculate the % healing for control and β2-AR ligand-treated cells.

Assay [7] relates to aortic macrovascular endothelial cells. The assay can be described thus: Galvanotaxis in applied electric field, aortic macrovascular endothelial cells. It is filed as cell-based, human. The conditions noted are these: electric field 100 mV/mm. As to the method: as §1, §2
Assay [8] relates to B16-BL6 melanoma cells. The assay can be described thus: β2-AR/melanoma in-vivo study (B16-BL6 in SKH1 mice). The conditions noted are these: for tumour surface area / tumour average surface area: s.c. pump, ICI 118,551 0.75 mg/kg/day or salbutamol 3 mg/kg/day, 7 mice per group.
Description: Twenty one, 5 week-old female SKH1 mice (immunocompetent, hairless albino strain, Charles River, Wilmington, Mass.) weighing 18 g-25 g were divided into 3 groups of 7 mice.
Melanomas were imaged daily by both transillumination and surface photography at 2× magnification, using an upright Nikon microscope controlled by Pixera software (San Jose, Calif.). Mice were sacrificed after 11 days by CO2 asphyxiation, and the tumor, lungs and the liver were excised and fixed in 10% buffered formalin for 7 days.
All mice were sacrificed by CO2 asphyxiation, 11 days post melanoma cell injection. The tumours were excised from their sub-dermal location, fixed in saline-buffered 10% formalin for 10 days, and then weighed. The average weight of the tumours from each group was calculated and statistically analysed.
The mark [9] stands for this setting: 1 μM salbutamol, control cosine=0.5.

Take `Cc1ccc(OCC(O)C(C)NC(C)C)c2c1CCC2` (stereo not drawn) [ICI 118,551]: in assay [1] (10 nM ICI 118,551, untreated cells: within 21 hours), the “time to highly organized, mature capillary network on Matrigel” value was ≤ 12 h. The “capillary outgrowth from cut edges of aortic rings” value in assay [2] is listed as “decreased the length of the capillaries”. Also, the “number of vessel bifurcation points” value in assay [3] is reported as > 50. Further, the “increase in directional migration” value in assay [4] (10 nM ICI 118,551) and in assay [7] (10 nM ICI 118,551) was ≤ 60% each time. The effect on galvanotaxis result in assay [5] is “little effect on galvanotaxis”. For the same compound, in assay [6], the “increase in rate of wound closure” value turned out to be 40%. For the same compound, the “average weight of tumours” value in assay [8] (11 days post melanoma cell injection, vs control group) is recorded as “statistically lower than that for the control group”. Also, in assay [8] (after 3 days, of 7 mice, ICI 118,551 0.75 mg/kg/day), the “number of mice without any signs of tumour development” value was “two”. In addition, the tumour surface area in assay [8] (after 3 days) was 1.8+/−0.61 mm^2. In addition, the “number of mice with no visible signs of tumour development” value in assay [8] (after 7 days and by end of study (11 days), of 7 mice, ICI 118,551 0.75 mg/kg/day) is on record as “one”. In addition, the “tumour average surface area” value in assay [8] (after 7 days) was 4.4+/−1.5 mm^2. In assay [8] (at eleven days, vs control), the “size of excised tumours (photograph)” value was “much smaller than those in the control sample”.
As for `C=C[C@@]1(C)CC(=O)[C@]2(O)[C@@]3(C)[C@@H](O)CCC(C)(C)[C@@H]3[C@H](O)[C@H](OC(C)=O)[C@@]2(C)O1` [forskolin], the “number of vessel bifurcation points” value in assay [3] was found to be 5.
Consider `CC(C)(C)NCC(O)c1ccc(O)c(CO)c1` (stereo not drawn) [salbutamol], for which the “capillary network formed on Matrigel” value in assay [1] (by 21 hours, 1 μM salbutamol) is “disorganized, immature capillary network”. Besides, in assay [2], the “capillary outgrowth from cut edges of aortic rings” value is “significantly increased the length and number of the capillaries”. The “number of vessel bifurcation points” value in assay [3] was 4. Further, the “migration directedness (cosine)” value in assay [4] (setting [9]) and in assay [7] (setting [9]) was 0 each time. Moreover, the “reduction of directional migration” value in assay [5] is “more than 50%”. In addition, in assay [6], the “increase in rate of wound closure” value worked out at 40%. Moreover, the tumour surface area in assay [8] (after 3 days) is given as 4.1+/−1.3 mm^2. The “tumour average surface area” value in assay [8] (after 7 days) is 10.4+/−2.9 mm^2. Further, the “surface area of the very large tumour of one mouse” value in assay [8] (after 7 days, single mouse, salbutamol 3 mg/kg/day) is reported as 24.8 mm^2.

(Values after patent US20100075969A1, “Angiogenesis” (UNIVERSITY OF LEICESTER, priority 2006, published 2010).)
